Results reported in ChEMBL document CHEMBL1795311, “Synthesis, antiproliferative activity, and mechanism of action of a series of 2-{[(2E)-3-phenylprop-2-enoyl]amino}benzamides” (Eur J Med Chem, 2011).

Key:
K562 [1] = experiment: Antiproliferative activity against human K562 cells at 10 uM after 48 hrs by trypan blue assay; format: functional; details: K562, 48 h, read-out: GI
K562 [2] = experiment: Growth inhibition of human K562 cells after 48 hrs by trypan blue assay; format: functional, cell-based; details: K562, 48 h

For `NC(=O)c1cc(Cl)ccc1NC(=O)/C=C/c1cccc(Cl)c1`, the inhibition of growth at 10 µM (K562 [1]) was 28.2% and the IC50 (K562 [2]) was > 10 µM.

In the case of `NC(=O)c1cc(Br)ccc1NC(=O)/C=C/c1ccccc1Br`, the inhibition of growth at 10 µM (K562 [1]) is reported as 46.2% and the IC50 (K562 [2]) is reported as > 10 µM.

`COc1cc2c(c(OC)c1OC)-c1ccc(OC)c(=O)cc1[C@@H](NC(C)=O)CC2` [COLCHICINE] was tested, and the inhibition of growth at 10 µM (K562 [1]) was 63.6% and the IC50 (K562 [2]) was 0.02 µM.

In the case of `NC(=O)c1cc(Cl)ccc1NC(=O)/C=C/c1ccccc1Cl`, the inhibition of growth at 10 µM (K562 [1]) is reported as 58% and the IC50 (K562 [2]) is reported as 7.4 µM.

In the case of `Cc1cccc(/C=C/C(=O)Nc2ccc(Cl)cc2C(N)=O)c1`, the inhibition of growth at 10 µM (K562 [1]) is reported as 37.8% and the IC50 (K562 [2]) is reported as > 10 µM.

In the case of `NC(=O)c1cc(Br)ccc1NC(=O)/C=C/c1cccc(Cl)c1`, the inhibition of growth at 10 µM (K562 [1]) is reported as 25.5% and the IC50 (K562 [2]) is reported as > 10 µM.

For `NC(=O)c1cc(Br)ccc1NC(=O)/C=C/c1ccccc1Cl`, the inhibition of growth at 10 µM (K562 [1]) was 59% and the IC50 (K562 [2]) was 8.1 µM.

For `Cc1ccccc1/C=C/C(=O)Nc1ccc(I)cc1C(N)=O`, the inhibition of growth at 10 µM (K562 [1]) was 26.3% and the IC50 (K562 [2]) was > 10 µM.

In the case of `Cc1cccc(/C=C/C(=O)Nc2ccc(Br)cc2C(N)=O)c1`, the inhibition of growth at 10 µM (K562 [1]) is reported as 43.8% and the IC50 (K562 [2]) is reported as > 10 µM.

`NC(=O)c1cc(Cl)ccc1NC(=O)/C=C/c1cccc(Br)c1` was tested, and the inhibition of growth at 10 µM (K562 [1]) was 27% and the IC50 (K562 [2]) was > 10 µM.

In the case of `NC(=O)c1ccccc1NC(=O)/C=C/c1ccccc1`, the inhibition of growth at 10 µM (K562 [1]) is reported as 14.2% and the IC50 (K562 [2]) is reported as > 10 µM.

`Cc1ccccc1/C=C/C(=O)Nc1ccc(Br)cc1C(N)=O` was tested, and the inhibition of growth at 10 µM (K562 [1]) was 43.2% and the IC50 (K562 [2]) was > 10 µM.

With `Cc1ccccc1/C=C/C(=O)Nc1ccc(Cl)cc1C(N)=O` the inhibition of growth at 10 µM (K562 [1]) was 52.2% and the IC50 (K562 [2]) was 9.5 µM.

For `NC(=O)c1cc(Cl)ccc1NC(=O)/C=C/c1ccc(Cl)cc1`, the inhibition of growth at 10 µM (K562 [1]) was 31% and the IC50 (K562 [2]) was > 10 µM.

`NC(=O)c1cc(Br)ccc1NC(=O)/C=C/c1cccc(Br)c1` was tested, and the inhibition of growth at 10 µM (K562 [1]) was 45.9% and the IC50 (K562 [2]) was > 10 µM.

With `NC(=O)c1cc(Br)ccc1NC(=O)/C=C/c1ccc(Cl)cc1` the inhibition of growth at 10 µM (K562 [1]) was 22% and the IC50 (K562 [2]) was > 10 µM.

For `Cc1ccc(/C=C/C(=O)Nc2ccc(Br)cc2C(N)=O)cc1`, the inhibition of growth at 10 µM (K562 [1]) was 45.9% and the IC50 (K562 [2]) was > 10 µM.

`NC(=O)c1cc(Cl)ccc1NC(=O)/C=C/c1ccccc1Br` showed an inhibition of growth at 10 µM (K562 [1]) of 49% and an IC50 (K562 [2]) of 10 µM.

Work on `Cc1ccc(/C=C/C(=O)Nc2ccc(Cl)cc2C(N)=O)cc1` yielded an inhibition of growth at 10 µM (K562 [1]) of 64% and an IC50 (K562 [2]) of 6.3 µM.
